Measured values published in PubChem BioAssay AID330 (DTP/NCI, 2004).
Where “and” joins values, the source holds several entries; their conditions need not be identical. Identical values can stand only once. Inconclusive results and toxic doses are left out.

Test system: P388 leukemia ip, CD2F1 mice, survival T/C
Experiment: NCI In Vivo Anticancer Drug Screen. Data for tumor model P388 Leukemia (intraperitoneal) in CD2F1 (CDF1) mice
Settings: endpoint: median survival time, higher = longer survival
In short: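 Mice carrying the transplanted tumor received test compound or vehicle. Survival was recorded in each group, and the value is the treated-group measurement divided by that of the vehicle-treated control group.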

[1] = dose: 50.0 mg/kg/injection, schedule: Q01DX005 (ip), vehicle: saline with Tween-80
[2] = dose: 100.0 mg/kg/injection, schedule: Q01DX005 (ip), vehicle: saline with Tween-80
[3] = dose: 200.0 mg/kg/injection, schedule: Q01DX005 (ip), vehicle: saline with Tween-80
[4] = dose: 12.5 mg/kg/injection, schedule: Q01DX009 (ip), vehicle: saline
[5] = dose: 50.0 mg/kg/injection, schedule: Q01DX009 (ip), vehicle: saline
[6] = dose: 60.0 mg/kg/injection, schedule: Q01DX005 (ip), vehicle: saline with Tween-80
[7] = dose: 120.0 mg/kg/injection, schedule: Q01DX005 (ip), vehicle: saline with Tween-80
[8] = dose: 100.0 mg/kg/injection, schedule: Q01DX009 (ip), vehicle: saline
[9] = dose: 200.0 mg/kg/injection, schedule: Q01DX009 (ip), vehicle: saline

Cc1c2ccncc2c(C)c2c1[nH]c1ccc(OCCN(C)C)cc12
T/C (dose: 6.25 mg/kg/injection, schedule: Q04DX002 (ip), vehicle: water): 108 % of control
T/C (dose: 12.5 mg/kg/injection, schedule: Q04DX002 (ip), vehicle: water): 114 % of control
T/C (dose: 25.0 mg/kg/injection, schedule: Q04DX002 (ip), vehicle: water): 119 % of control
T/C (dose: 50.0 mg/kg/injection, schedule: Q04DX002 (ip), vehicle: water): 87 % of control

CNC(=O)OCc1c(COC(=O)NC)c(-c2ccccc2)n(-c2ccc(Cl)c(Cl)c2)c1C
T/C (dose: 12.5 mg/kg/injection, schedule: Q01DX009 (ip), vehicle: distilled water + Tween-80): 117 % of control
T/C (dose: 25.0 mg/kg/injection, schedule: Q01DX009 (ip), vehicle: distilled water + Tween-80): 160 % of control
T/C (dose: 100.0 mg/kg/injection, schedule: Q01DX009 (ip), vehicle: distilled water + Tween-80): 155 % of control and 165 % of control
T/C (dose: 200.0 mg/kg/injection, schedule: Q01DX009 (ip), vehicle: distilled water + Tween-80): 155 % of control and 184 % of control
T/C (dose: 400.0 mg/kg/injection, schedule: Q01DX009 (ip), vehicle: distilled water + Tween-80): 87 % of control

O=C1Cc2ccccc2N1C(=O)c1ccc(Br)cc1
T/C (dose: 100.0 mg/kg/injection, schedule: Q01DX001 (ip), vehicle: Klucel (hydroxypropylcellulose) (HPC)): 94 % of control
T/C (dose: 200.0 mg/kg/injection, schedule: Q01DX001 (ip), vehicle: Klucel (hydroxypropylcellulose) (HPC)): 90 % of control

O=C(Cc1ccccc1)c1ccccc1
T/C (dose: 100.0 mg/kg/injection, schedule: Q04DX003 (ip), vehicle: saline with Tween-80): 98 % of control
T/C (dose: 200.0 mg/kg/injection, schedule: Q04DX003 (ip), vehicle: saline with Tween-80): 100 % of control
T/C (dose: 400.0 mg/kg/injection, schedule: Q04DX003 (ip), vehicle: saline with Tween-80): 100 % of control

C1CNC(C2=NCCN2)=N1
T/C [1]: 108 % of control
T/C [2]: 101 % of control
T/C [3]: 97 % of control

COc1ccc(Cc2nnc3nc(OC)c(-c4ccc(OC)cc4)n3n2)cc1
T/C [1]: 108 % of control and 87 % of control
T/C [2]: 108 % of control
T/C [3]: 86 % of control and 98 % of control

O=C1C(N2CC2)=C(N2CC2)C(=O)C(N2CC2)=C1N1CC1
T/C (dose: 1.8 micrograms/kg/injection, schedule: Q01DX009 (ip), vehicle: saline): 110 % of control
T/C (dose: 2.7 micrograms/kg/injection, schedule: Q01DX009 (ip), vehicle: saline): 115 % of control
T/C (dose: 4.0 micrograms/kg/injection, schedule: Q01DX009 (ip), vehicle: saline): 112 % of control

CC(C)(C)C(=N)N
T/C [4]: 100 % of control
T/C (dose: 25.0 mg/kg/injection, schedule: Q01DX009 (ip), vehicle: saline): 108 % of control
T/C [5]: 102 % of control

Cc1cc(=O)c2cc3ccc4cccc5ccc(c2[nH]1)c3c45
T/C [1]: 98 % of control
T/C [2]: 103 % of control
T/C [3]: 100 % of control

O=C1C2C3C=CC(C2C(=O)N1c1ccccc1)C1C2C(=O)N(c4ccccc4)C(=O)C2C31 (centres undefined)
T/C (dose: 100.0 mg/kg/injection, schedule: Q01DX001 (ip), vehicle: saline with Tween-80): 88 % of control
T/C (dose: 200.0 mg/kg/injection, schedule: Q01DX001 (ip), vehicle: saline with Tween-80): 89 % of control
T/C (dose: 400.0 mg/kg/injection, schedule: Q01DX001 (ip), vehicle: saline with Tween-80): 93 % of control

Cc1nccn1CC(=O)c1ccccc1
T/C [6]: 104 % of control
T/C [7]: 104 % of control

COC(=O)CCCc1ccc(OC)c(OC)c1
T/C (dose: 12.5 mg/kg/injection, schedule: Q01DX009 (ip), vehicle: saline with Tween-80): 100 % of control
T/C (dose: 25.0 mg/kg/injection, schedule: Q01DX009 (ip), vehicle: saline with Tween-80): 92 % of control
T/C (dose: 50.0 mg/kg/injection, schedule: Q01DX009 (ip), vehicle: saline with Tween-80): 95 % of control
T/C (dose: 100.0 mg/kg/injection, schedule: Q01DX009 (ip), vehicle: saline with Tween-80): 89 % of control

CCN(CC)CCCC(C)NCC#CCNC(C)CCCN(CC)CC (centres undefined)
T/C (dose: 1.56 mg/kg/injection, schedule: Q01DX009 (ip), vehicle: water): 105 % of control
T/C (dose: 3.13 mg/kg/injection, schedule: Q01DX009 (ip), vehicle: water): 108 % of control
T/C (dose: 6.25 mg/kg/injection, schedule: Q01DX009 (ip), vehicle: water): 104 % of control
T/C (dose: 12.5 mg/kg/injection, schedule: Q01DX009 (ip), vehicle: water): 105 % of control

CC(C)OC(=O)Nc1ccc2nc(-c3cscn3)[nH]c2c1
T/C [1]: 110 % of control
T/C [2]: 114 % of control and 121 % of control
T/C [3]: 151 % of control
T/C (dose: 400.0 mg/kg/injection, schedule: Q01DX005 (ip), vehicle: saline with Tween-80): 180 % of control

CC(C)=CC1C(/C(C)=C/CCCCC(=O)O)C1(C)C (centres undefined)
T/C (dose: 100.0 mg/kg/injection, schedule: Q04DX002 (ip), vehicle: saline with Tween-80): 101 % of control
T/C (dose: 200.0 mg/kg/injection, schedule: Q04DX002 (ip), vehicle: saline with Tween-80): 94 % of control
T/C (dose: 400.0 mg/kg/injection, schedule: Q04DX002 (ip), vehicle: saline with Tween-80): 96 % of control

CCOC(=O)CNC(=O)NNC(=O)OCC
T/C (dose: 6.25 mg/kg/injection, schedule: Q01DX009 (ip), vehicle: saline): 98 % of control
T/C [4]: 91 % of control
T/C [5]: 100 % of control
T/C [8]: 100 % of control
T/C [9]: 100 % of control

Cc1[nH]ccc(=O)c1O
T/C (dose: 16.0 mg/kg/injection, schedule: Q01DX009 (ip), vehicle: saline with Tween-80): 105 % of control
T/C (dose: 32.0 mg/kg/injection, schedule: Q01DX009 (ip), vehicle: saline with Tween-80): 110 % of control
T/C [5]: 123 % of control
T/C [8]: 124 % of control
T/C [9]: 153 % of control
T/C (dose: 400.0 mg/kg/injection, schedule: Q01DX009 (ip), vehicle: saline): 98 % of control
T/C (dose: 512.0 mg/kg/injection, schedule: Q01DX009 (ip), vehicle: saline with Tween-80): 91 % of control

NC(N)=NN=c1/c(=N\N=C(N)N)c2cc3ccccc3cc2/c1=N/N=C(N)N
T/C (dose: 6.25 mg/kg/injection, schedule: Q01DX001 (ip), vehicle: saline): 102 % of control
T/C (dose: 12.5 mg/kg/injection, schedule: Q01DX001 (ip), vehicle: saline): 96 % of control
T/C (dose: 25.0 mg/kg/injection, schedule: Q01DX001 (ip), vehicle: saline): 96 % of control and 97 % of control

NCC(=O)c1ccc2ccccc2c1
T/C (dose: 60.0 mg/kg/injection, schedule: Q01DX005 (ip), vehicle: Klucel (hydroxypropylcellulose) (HPC)): 105 % of control
T/C (dose: 120.0 mg/kg/injection, schedule: Q01DX005 (ip), vehicle: Klucel (hydroxypropylcellulose) (HPC)): 106 % of control

COc1ccc(-c2nn(C)c3c2C(=O)CCC3)cc1OC
T/C (dose: 100.0 mg/kg/injection, schedule: Q04DX003 (ip), vehicle: Klucel (hydroxypropylcellulose) (HPC)): 94 % of control
T/C (dose: 200.0 mg/kg/injection, schedule: Q04DX003 (ip), vehicle: Klucel (hydroxypropylcellulose) (HPC)): 99 % of control

CCOP1(OCC)(SSC)OC(=O)C(C)S1 (centres undefined)
T/C (dose: 5.0 mg/kg/injection, schedule: Q01DX005 (ip), vehicle: saline with Tween-80): 108 % of control
T/C (dose: 10.0 mg/kg/injection, schedule: Q01DX005 (ip), vehicle: saline with Tween-80): 101 % of control
T/C (dose: 20.0 mg/kg/injection, schedule: Q01DX005 (ip), vehicle: saline with Tween-80): 108 % of control
T/C [6]: 94 % of control

CCSc1nc2ccc(N3C(=O)C=CC3=O)cc2s1
T/C (dose: 3.12 mg/kg/injection, schedule: Q01DX009 (ip), vehicle: Klucel (hydroxypropylcellulose) (HPC)): 111 % of control
T/C (dose: 6.25 mg/kg/injection, schedule: Q01DX009 (ip), vehicle: Klucel (hydroxypropylcellulose) (HPC)): 119 % of control
T/C (dose: 12.5 mg/kg/injection, schedule: Q01DX009 (ip), vehicle: Klucel (hydroxypropylcellulose) (HPC)): 115 % of control

COC(=O)N1N=C(c2ccccc2)C(C(=O)OC)(C(=O)OC)c2ccccc21
T/C [6]: 93 % of control
T/C [7]: 87 % of control

COc1cccc2c1C(=O)c1c(O)c3c(c(O)c1C2=O)CC(O)(C(C)NCCN(C)C)CC3OC1CC(N)C(O)C(C)O1 (centres undefined)
T/C (dose: 0.63 mg/kg/injection, schedule: Q01DX009 (ip), vehicle: water): 103 % of control
T/C (dose: 1.25 mg/kg/injection, schedule: Q01DX009 (ip), vehicle: water): 106 % of control
T/C (dose: 2.5 mg/kg/injection, schedule: Q01DX009 (ip), vehicle: other): 121 % of control
T/C (dose: 20.0 mg/kg/injection, schedule: Q01DX009 (ip), vehicle: other): 153 % of control
T/C (dose: 40.0 mg/kg/injection, schedule: Q01DX009 (ip), vehicle: other): 157 % of control

CC(CN(C)C)Oc1ccccc1NC1=C(Cl)C(=O)C(Nc2ccccc2OC(C)CN(C)C)=C(Cl)C1=O (centres undefined)
T/C (dose: 10.0 mg/kg/injection, schedule: Q01DX009 (ip), vehicle: saline): 108 % of control and 115 % of control
T/C (dose: 20.0 mg/kg/injection, schedule: Q01DX009 (ip), vehicle: saline): 115 % of control and 118 % of control
